From patent US20170065500A1, “Activation of Hydrogen Peroxide” (Revlon Consumer Products Corporation, priority 2015, published 2017)

Assays:
[1] = test system: S. epidermidis; assay: Bacterial colonies on agar petri dish treated with hydrogen peroxide alone and with UV light; type: cell-based; conditions: + 265 nm UV light, 15 minutes
Procedure: (§1) The bacterial (organism) was plated on a standard agar petri dish and allowed to grow. The colonies were treated with hydrogen peroxide alone and with UV light for 15 minutes. The light growth means light growth is visable but not as fully developed colonies. Heavy growth was fully developed colonies to numerous to count.

[2] = test system: C. xerosis; assay: as above; type: cell-based; conditions: + 265 nm UV light, 15 minutes
Procedure: as §1

OO [Hydrogen peroxide]
bacterial growth after treatment [1]: Very
bacterial growth after treatment [2]: No
